Test results taken from article PMC8803738, “Impact of the mouse model and molar amount of injected ligand on the tissue distribution profile of PSMA radioligands” (European Journal of Nuclear Medicine and Molecular Imaging, 2021).

Test system: LNCaP tumor-bearing mice
Test: Biodistribution in LNCaP tumor-bearing mice
Conditions: LNCaP model

CC(C)Cc1ccc(C(C)C(=O)NC(CCN)C(=O)NCCCCC(NC(=O)CN2CCN(CC(=O)O)CCN(CC(=O)O)CCN(CC(=O)O)CC2)C(=O)NCC2CCC(C(=O)NC(Cc3ccc4ccccc4c3)C(=O)NCCCCC(NC(=O)NC(CCC(=O)O)C(=O)O)C(=O)O)CC2)cc1 (stereo not shown) [[^177Lu]Lu-Ibu-DAB-PSMA, metal not drawn]
Tissue distribution, Blood (4 h p.i., 1.0 nmol): 0.87 ± 0.29 % IA/g | Tissue distribution, Bone (4 h p.i., 1.0 nmol): 0.39 ± 0.17 % IA/g | Tissue distribution, Heart (4 h p.i., 1.0 nmol): 0.41 ± 0.11 % IA/g | Tissue distribution, Intestines (4 h p.i., 1.0 nmol): 0.23 ± 0.05 % IA/g | Tissue distribution, Kidneys (4 h p.i., 1.0 nmol): 16 ± 1 % IA/g | Tissue distribution, LNCaP tumor (4 h p.i., 1.0 nmol): 12 ± 2 % IA/g | Tissue distribution, Liver (4 h p.i., 1.0 nmol): 0.82 ± 0.09 % IA/g | Tissue distribution, Lung (4 h p.i., 1.0 nmol): 0.78 ± 0.19 % IA/g | Tissue distribution, Muscle (4 h p.i., 1.0 nmol): 0.22 ± 0.14 % IA/g | Tissue distribution, Salivary glands (4 h p.i., 1.0 nmol): 0.38 ± 0.08 % IA/g | Tissue distribution, Spleen (4 h p.i., 1.0 nmol): 0.45 ± 0.08 % IA/g | Tissue distribution, Stomach (4 h p.i., 1.0 nmol): 0.22 ± 0.06 % IA/g | Tumor-to-blood ratio (4 h p.i., 1.0 nmol): 15 ± 5 | Tumor-to-kidney ratio (4 h p.i., 1.0 nmol): 0.71 ± 0.10 | Tumor-to-liver ratio (4 h p.i., 1.0 nmol): 14 ± 1 | Tissue distribution, Blood (24 h p.i., 0.05 nmol): 0.16 ± 0.03 % IA/g | Tissue distribution, Bone (24 h p.i., 0.05 nmol): < 0.10 % IA/g | Tissue distribution, Heart (24 h p.i., 0.05 nmol): 0.11 ± 0.02 % IA/g | Tissue distribution, Intestines (24 h p.i., 0.05 nmol): 0.10 ± 0.01 % IA/g | Tissue distribution, Kidneys (24 h p.i., 0.05 nmol): 5.9 ± 1.5 % IA/g | Tissue distribution, LNCaP tumor (24 h p.i., 0.05 nmol): 18 ± 7 % IA/g | Tissue distribution, Liver (24 h p.i., 0.05 nmol): 0.48 ± 0.08 % IA/g | Tissue distribution, Lung (24 h p.i., 0.05 nmol): 0.24 ± 0.03 % IA/g | Tissue distribution, Muscle (24 h p.i., 0.05 nmol): < 0.10 % IA/g | Tissue distribution, Salivary glands (24 h p.i., 0.05 nmol): 0.18 ± 0.03 % IA/g | Tissue distribution, Spleen (24 h p.i., 0.05 nmol): 0.35 ± 0.06 % IA/g | Tissue distribution, Stomach (24 h p.i., 0.05 nmol): 0.13 ± 0.04 % IA/g | Tumor-to-blood ratio (24 h p.i., 0.05 nmol): 116 ± 37 | Tumor-to-kidney ratio (24 h p.i., 0.05 nmol): 3.2 ± 1.1 | Tumor-to-liver ratio (24 h p.i., 0.05 nmol): 39 ± 13 | Tissue distribution, Blood (24 h p.i., 1.0 nmol): 0.19 ± 0.03 % IA/g | Tissue distribution, Bone (24 h p.i., 1.0 nmol): 0.14 ± 0.03 % IA/g | Tissue distribution, Heart (24 h p.i., 1.0 nmol): 0.12 ± 0.02 % IA/g | Tissue distribution, Intestines (24 h p.i., 1.0 nmol): 0.12 ± 0.03 % IA/g | Tissue distribution, Kidneys (24 h p.i., 1.0 nmol): 6.8 ± 1.1 % IA/g | Tissue distribution, LNCaP tumor (24 h p.i., 1.0 nmol): 8.8 ± 2.2 % IA/g | Tissue distribution, Liver (24 h p.i., 1.0 nmol): 0.45 ± 0.07 % IA/g | Tissue distribution, Lung (24 h p.i., 1.0 nmol): 0.23 ± 0.03 % IA/g | Tissue distribution, Muscle (24 h p.i., 1.0 nmol): < 0.10 % IA/g | Tissue distribution, Salivary glands (24 h p.i., 1.0 nmol): 0.16 ± 0.02 % IA/g | Tissue distribution, Spleen (24 h p.i., 1.0 nmol): 0.21 ± 0.06 % IA/g | Tissue distribution, Stomach (24 h p.i., 1.0 nmol): 0.23 ± 0.10 % IA/g | Tumor-to-blood ratio (24 h p.i., 1.0 nmol): 46 ± 12 | Tumor-to-kidney ratio (24 h p.i., 1.0 nmol): 1.3 ± 0.2 | Tumor-to-liver ratio (24 h p.i., 1.0 nmol): 20 ± 3 | Tissue distribution, Blood (48 h p.i., 0.05 nmol): 0.10 ± 0.02 % IA/g | Tissue distribution, Bone (48 h p.i., 0.05 nmol): < 0.10 % IA/g | Tissue distribution, Heart (48 h p.i., 0.05 nmol): < 0.10 % IA/g | Tissue distribution, Intestines (48 h p.i., 0.05 nmol): < 0.10 % IA/g | Tissue distribution, Kidneys (48 h p.i., 0.05 nmol): 2.0 ± 0.3 % IA/g | Tissue distribution, LNCaP tumor (48 h p.i., 0.05 nmol): 16 ± 5 % IA/g | Tissue distribution, Liver (48 h p.i., 0.05 nmol): 0.50 ± 0.10 % IA/g | Tissue distribution, Lung (48 h p.i., 0.05 nmol): 0.16 ± 0.04 % IA/g | Tissue distribution, Muscle (48 h p.i., 0.05 nmol): < 0.10 % IA/g | Tissue distribution, Salivary glands (48 h p.i., 0.05 nmol): 0.11 ± 0.01 % IA/g | Tissue distribution, Spleen (48 h p.i., 0.05 nmol): 0.31 ± 0.08 % IA/g | Tissue distribution, Stomach (48 h p.i., 0.05 nmol): < 0.10 % IA/g | Tumor-to-blood ratio (48 h p.i., 0.05 nmol): 155 ± 31 | Tumor-to-kidney ratio (48 h p.i., 0.05 nmol): 7.7 ± 1.7 | Tumor-to-liver ratio (48 h p.i., 0.05 nmol): 32 ± 7 | Tissue distribution, Blood (48 h p.i., 1.0 nmol): 0.09 ± 0.02 % IA/g | Tissue distribution, Bone (48 h p.i., 1.0 nmol): < 0.10 % IA/g | Tissue distribution, Heart (48 h p.i., 1.0 nmol): < 0.10 % IA/g | Tissue distribution, Intestines (48 h p.i., 1.0 nmol): < 0.10 % IA/g | Tissue distribution, Kidneys (48 h p.i., 1.0 nmol): 2.4 ± 0.5 % IA/g | Tissue distribution, LNCaP tumor (48 h p.i., 1.0 nmol): 9.5 ± 1.1 % IA/g | Tissue distribution, Liver (48 h p.i., 1.0 nmol): 0.57 ± 0.09 % IA/g | Tissue distribution, Lung (48 h p.i., 1.0 nmol): 0.14 ± 0.03 % IA/g | Tissue distribution, Muscle (48 h p.i., 1.0 nmol): < 0.10 % IA/g | Tissue distribution, Salivary glands (48 h p.i., 1.0 nmol): < 0.10 % IA/g | Tissue distribution, Spleen (48 h p.i., 1.0 nmol): 0.24 ± 0.04 % IA/g | Tissue distribution, Stomach (48 h p.i., 1.0 nmol): < 0.10 % IA/g | Tumor-to-blood ratio (48 h p.i., 1.0 nmol): 105 ± 14 | Tumor-to-kidney ratio (48 h p.i., 1.0 nmol): 4.2 ± 0.7 | Tumor-to-liver ratio (48 h p.i., 1.0 nmol): 17 ± 2 | Tissue distribution, Blood (48 h p.i., 1.0 nmol, listed as [177Lu]Lu-Ibu-DAB-PSMA): < 0.10 % IA/g
